The text below walks through data of patent US20180215787A1, “Chromogenic And Fluorogenic Peptide Substrates For The Detection Of Serine Protease Activity” (RUPRECHT-KARLS-UNIVERSITÄT HEIDELBERG, priority 2015, published 2018).

The conditions of data set [1]: cited from earlier work.
Data set [2] concerns the target T1, factor Xa (Bos taurus, UniProt P00743). Nature of the data set: Kinetic measurements (Michaelis-Menten) of factor Xa substrates. The class given is biochemical. The protocol: (§1) Commercial substrate 1a, depicted in FIG. 2, was used as reference in the kinetic measurements. The kinetic values KM, kcat and kcat/KM were established for the fluorogenic compound 1 using Human Thrombin. In order to compare the results of 1 and 1a, the absorption of the released chromophores was measured during the enzymatic reaction (570 nm for resorufin and 380 nm for p-nitroaniline).
(§2) The same parameters were also determined for 1 by measuring the emission of resorufin at 583 nm and similar values to the ones obtained from absorption were found (FIG. 5A).
A similar conjugate, with the same peptide sequence, but having p-nitroanilide as reporter, has a much higher KM (40 μM) and the enzyme has poorer catalytic efficiency for this substrate (2.7×10^6 M^−1 s^−1). Thus, compound 2 of the present invention performs better than the best factor Xa substrate so far reported.
The kinetic parameters were determined as described for the other substrates (cf. Example 4). The results of Michaelis-Menten kinetic is depicted in FIG. 13.

Data set [3] addresses T2, thrombin (Homo sapiens, UniProt P00734). As to the kind of experiment: Fluorescence assay to evaluate specificity of compound 1 toward thrombin. The class given is biochemical. The conditions noted are these: Compound 1 5 μM, proteases 100 pM. The protocol:
(§3) The enzymatic reactions were carried out in 50 mM Tris buffer pH 8.3 and 130 mM NaCl.
(§4) the specificity of Compound 1 of the present invention toward thrombin was tested. Compound 1 (5 μM) was incubated in the presence of thrombin (100 pM) and some possible interfering proteases and proteins, like trypsin, factor Xa, myoglobin, cytochrome C and BSA (100 pM). The increase of fluorescence in response to factor Xa, myoglobin, cytochrome C and BSA was negligible (FIG. 6). […] A commercial assay can detect 1 pM thrombin, by fishing it out of plasma samples using microwells coated with DNA-aptamer. The AMC-based substrate is converted by thrombin to fluorescent product after the enrichment step. The fluorescence assay according to the present invention allowed the detection of thrombin at the concentrations as low as 0.5 pM in water solution (FIG. 7), which was achieved without any enrichment step.

A further data set concerns trypsin. Nature of the data set: Fluorescence specificity assay, trypsin. The class given is biochemical. Particulars: Compound 1 5 μM, trypsin 100 pM. The protocol:
as §3, §4

Data set [4] has as its target T1, factor Xa. Nature of the data set: Fluorescence specificity assay, factor Xa. The class given is biochemical. Particulars: Compound 1 5 μM, factor Xa 100 pM. How it is done: as §3, §4
Another data set concerns the target T3, myoglobin (Homo sapiens, UniProt P02144).
T3 sequence (P02144 1-154): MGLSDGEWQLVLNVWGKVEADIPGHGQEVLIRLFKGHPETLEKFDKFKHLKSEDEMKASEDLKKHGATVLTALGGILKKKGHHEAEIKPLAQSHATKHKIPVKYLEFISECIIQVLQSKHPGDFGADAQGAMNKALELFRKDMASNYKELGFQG
Nature of the data set: Fluorescence specificity assay, myoglobin. The class given is biochemical. The conditions noted are these: Compound 1 5 μM, myoglobin 100 pM. How it is done:
as §3, §4

For the next data set, the target named is cytochrome C (Homo sapiens, UniProt P99999). Nature of the data set: Fluorescence specificity assay, cytochrome C. It counts as biochemical. The conditions noted are these: Compound 1 5 μM, cytochrome C 100 pM. The protocol:
as §3, §4

A further data set has as its target BSA (Bos taurus, UniProt P02769). As to the kind of experiment: Fluorescence specificity assay, BSA. The class given is biochemical. Particulars: Compound 1 5 μM, BSA 100 pM. The protocol: as §3, §4
Data set [5] concerns the target T2, thrombin. Nature of the data set: Fluorescence assay for determination of thrombin in water (LOD). The class given is biochemical. The conditions noted are these: in water solution, without enrichment step. The protocol:
The mean change of resorufin fluorescence dF/min is plotted versus the corresponding thrombin concentration (in pM).
as §4

Data set [6] can be described thus: Stability toward spontaneous hydrolysis in thrombin buffer. The class given is physicochemical. The conditions noted are these: incubation with thrombin buffer (Tris pH 8.3), 24° C. The protocol: A. Absorption spectra of resorufin and compound 1 of the present invention; B. Enzymatic hydrolysis of 1 (5 μM) in the presence of thrombin (100 pM) with Tris buffer pH 8.3 (λex=570 nm; λem=583 nm) at 24° C.; inset: full emission spectra recorded after 60 min, with and without enzyme; C.
The photophysical properties of compound 1 of the present invention, as well as its enzymatic conversion to fluorescent product resorufin were investigated. […] It also has a negligible emission, if exited either at its maxima (480 nm) or at resorufin maxima (570 nm).

Data set [7] has as its target T2, thrombin. As to the kind of experiment: Kinetic measurements with Human Thrombin. The class given is biochemical. Particulars: absorption of released chromophore, 570 nm. The protocol: as §1, §2
The mark [8] stands for this setting: factor Xa substrate, Michaelis-Menten kinetic.

T1 sequence (P00743 234-492 limits assumed): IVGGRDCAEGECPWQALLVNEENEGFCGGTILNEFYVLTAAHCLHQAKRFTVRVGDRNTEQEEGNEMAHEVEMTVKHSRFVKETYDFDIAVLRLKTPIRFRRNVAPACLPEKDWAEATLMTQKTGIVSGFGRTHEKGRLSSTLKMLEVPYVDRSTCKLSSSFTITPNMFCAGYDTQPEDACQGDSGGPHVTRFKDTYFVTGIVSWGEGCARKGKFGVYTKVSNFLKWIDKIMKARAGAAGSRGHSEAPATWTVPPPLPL
T1 sequence (P00743 41-180 partner limits assumed): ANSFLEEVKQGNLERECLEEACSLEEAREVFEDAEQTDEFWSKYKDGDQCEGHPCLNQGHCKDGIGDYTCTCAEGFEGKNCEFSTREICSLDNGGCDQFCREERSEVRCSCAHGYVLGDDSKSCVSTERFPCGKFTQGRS
Sequence of BSA (P02769 25-607): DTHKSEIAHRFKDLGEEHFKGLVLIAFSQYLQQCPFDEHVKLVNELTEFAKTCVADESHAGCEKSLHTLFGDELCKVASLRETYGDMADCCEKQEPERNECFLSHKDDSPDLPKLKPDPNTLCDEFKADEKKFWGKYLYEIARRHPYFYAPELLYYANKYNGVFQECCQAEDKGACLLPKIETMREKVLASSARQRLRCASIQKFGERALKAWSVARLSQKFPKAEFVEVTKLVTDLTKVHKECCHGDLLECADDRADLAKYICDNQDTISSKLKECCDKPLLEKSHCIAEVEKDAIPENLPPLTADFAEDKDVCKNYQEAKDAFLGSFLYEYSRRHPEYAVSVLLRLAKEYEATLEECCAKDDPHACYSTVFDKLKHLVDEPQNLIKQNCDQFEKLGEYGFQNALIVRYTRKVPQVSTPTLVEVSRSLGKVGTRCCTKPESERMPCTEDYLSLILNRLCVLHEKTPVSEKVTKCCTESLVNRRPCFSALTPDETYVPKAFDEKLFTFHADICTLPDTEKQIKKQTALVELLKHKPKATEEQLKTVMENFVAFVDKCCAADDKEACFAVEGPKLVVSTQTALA
Sequence of cytochrome C (P99999 whole entry, species assumed): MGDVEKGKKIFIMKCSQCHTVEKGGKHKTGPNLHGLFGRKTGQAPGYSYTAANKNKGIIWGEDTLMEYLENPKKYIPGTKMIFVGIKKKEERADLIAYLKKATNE

Usually pKa stands for the pH at which an ionisable group is half protonated. On to `O=c1ccc2nc3ccc(O)cc3oc-2c1` [resorufin, 7-Hydroxy-3H-phenoxazin-3-one], for which, in data set [1], the pKa is listed as ~6.0.
For orientation: Km means the substrate concentration at which the rate is half of its maximum. As a reminder, the kcat is the number of substrate molecules converted per active site and unit of time at saturation. For the molecule “Cbz-D-Arg-Gly-Arg-PABA-Res [Compound 2a]”, at factor Xa [2] (setting [8]), the Km worked out at 5.5 µM and the turnover number (kcat) came out at 4.9 s⁻¹.
For the molecule “BzIs-D-Arg-Gly-Arg-PABA-Res [Compound 2]”, at factor Xa [2] (FIG. 5B), the “KM value (in words)” value is given as “very low KM value”, the “catalytic efficiency (in words)” value is “excellent catalytic efficiency” and the “turnover number kcat (in words)” value is listed as “relatively good turnover number”.
For the molecule D-Phe-Pro-Arg-PABA-Res [Compound 1], at thrombin [3], the “specificity for thrombin compared to factor Xa” value is reported as 400 times. Further, the “selectivity for thrombin over trypsin” value on thrombin [3] (50 mM Tris pH 8.3, 130 mM NaCl) was found to be 7.5 fold. Also, the “hydrolysis by trypsin (rate compared to thrombin)” value with trypsin is recorded as “slower rate compared to thrombin”. Further, on factor Xa [4], the “increase of fluorescence in response to factor Xa” value was “negligible”. The “increase of fluorescence in response to myoglobin” value on myoglobin is given as “negligible”. The “increase of fluorescence in response to cytochrome C” value at cytochrome C is listed as “negligible”. In addition, the “increase of fluorescence in response to BSA” value on BSA is listed as “negligible”. On thrombin [5], the “lowest detectable thrombin concentration” value is 0.5 pM. The “spontaneous hydrolysis / chemical stability” value in data set [6] is given as “no spontaneous hydrolysis”. Also, the “thrombin turnover compared with commercial substrate 1a” value at thrombin [7] was “did not suffer at all”.
